Results reported in patent US4263291A, “3,7-Disubstituted-3-cephem-4-carboxylic acid compounds and processes for the preparation thereof” (Fujisawa Pharmaceutical Co., Ltd., priority 1976, dated 1981).
Values after ≈ are worked out from the molar mass of the structure shown. Like-named read-outs stand apart in the source and are kept apart here.

Assays:
Test in all cases: In vitro antibacterial activity, two-fold agar-plate dilution method
Format in all cases: cell-based
[1] = tested on: Sal. enteritidis; conditions: Salmonella enterica, HI-agar, 37° C., 20 hours, read-out: MIC (minimal inhibitory concentration)
Protocol: (§1) In vitro antibacterial activity was determined by the two-fold agar-plate dilution method as described below.
(§2) One loopful of an overnight culture of each test strain in Trypticase-soy broth (10^8 viable cells per ml.) was streaked on heart infusion agar (HI-agar) containing graded concentrations of antibiotics, and the minimal inhibitory concentration (MIC) was expressed in terms of μg/ml. aft er incubation at 37° C. for 20 hours.

[2] = tested on: Staph. aureus 209P JC-1; conditions: Staphylococcus aureus, read-out: MIC (minimal inhibitory concentration)
Protocol: as §1, §2

[3] = tested on: Sh. flexneri 2a; conditions: Shigella flexneri, HI-agar, 37° C., 20 hours, read-out: MIC (minimal inhibitory concentration)
Protocol: as §1, §2

[4] = tested on: E. coli NIHJ JC-2; conditions: Escherichia coli, read-out: MIC (minimal inhibitory concentration)
Protocol: as §1, §2

[5] = NIHJJC2, E. coli NIHJ JC-2, HI-agar, 37° C., 20 hours
[6] = Staph. aureus 209P JC-1, HI-agar, 37° C., 20 hours

| SMILES | MIC [1] [µg/mL] | MIC ([2]; 209P, 20 h) [µg/mL] | MIC [3] [µg/mL] | MIC [4, 5] [µg/mL] | MIC [2, 6] [µg/mL] | MIC ([4]; NIHJJC2, 20 h) [µg/mL] |
| --- | --- | --- | --- | --- | --- | --- |
| CO/N=C(/C(=O)NC1C(=O)N2C(C(=O)O)=C(CSc3nnnn3C)CSC12)c1csnn1 (stereo not drawn) [Test Compound (2), 7-[2-Methoxyimino-2-(1,2,3-thiadiazol-4-yl)acetamido]-3-(1-methyl-1H-tetrazol-5-yl)thiomethyl-3-cephem-4-carboxylic acid (anti isomer)] | 6.25 (≈ 12.6 µM) | 12.5 (≈ 25.1 µM) | 12.5 (≈ 25.1 µM) | 25 (≈ 50.2 µM) |  |  |
| Cn1nnnc1SCC1=C(C(=O)O)N2C(=O)C(NC(=O)/C(=N\O)c3cnsc3)C2SC1 (stereo not drawn) [Test Compound (4), 7-[2-Hydroxyimino-2-(isothiazol-4-yl)acetamido]-3-(1-methyl-1H-tetrazol-5-yl)thiomethyl-3-cephem-4-carboxylic acid (syn isomer)] | 0.78 (≈ 1.62 µM) |  | 0.39 (≈ 0.808 µM) |  | 0.39 (≈ 0.808 µM) | 1.56 (≈ 3.23 µM) |
| CO/N=C(\C(=O)NC1C(=O)N2C(C(=O)O)=C(CSc3nnnn3C)CSC12)c1csnn1 (stereo not drawn) [Test Compound (1), 7-[2-Methoxyimino-2-(1,2,3-thiadiazol-4-yl)acetamido]-3-(1-methyl-1H-tetrazol-5-yl)thiomethyl-3-cephem-4-carboxylic acid (syn isomer)] | 0.2 (≈ 0.402 µM) |  | 1.56 (≈ 3.14 µM) | 0.78 (≈ 1.57 µM) | 3.13 (≈ 6.29 µM) |  |
| Cn1nnnc1SCC1=C(C(=O)O)N2C(=O)C(NC(=O)/C(=N\O)c3cnsn3)C2SC1 (stereo not drawn) [Test Compound (3), 7-[2-Hydroxyimino-2-(1,2,5-thiadiazol-3-yl)acetamido]-3-(1-methyl-1H-tetrazol-5-yl)thiomethyl-3-cephem-4-carboxylic acid (syn isomer)] | 1.56 (≈ 3.23 µM) |  | 0.39 (≈ 0.807 µM) | 3.13 (≈ 6.47 µM) | 0.78 (≈ 1.61 µM) |  |
